Values after ≈ are worked out from the molar mass of the structure shown.
How the values were obtained:
[1] = test system: HepG2 (Hepatocellular carcinoma cells); assay: Cytotoxicity evaluation using viability assay (crystal violet) against HepG2 cell line; format: cell-based, human; settings: 48 hours
[2] = test system: HepG2 (Hepatocellular carcinoma cells); assay: as above; format: cell-based, human; settings: for Viability %: 48 hours; for IC50: Homo sapiens, HepG2 cells, 48 hours incubation, crystal violet viability, read-out: inhibition concentration value (IC50) against HepG2
Text: HepG2 cells (human cell line of a well differentiated hepatocellular carcinoma isolated from a liver biopsy of a person) were obtained from the American Type Culture Collection (ATCC). The chemicals used were: Dimethyl sulfoxide (DMSO), crystal violet and trypan blue dye, purchased from Sigma, St. Louis, Mo., USA; DMEM, RPMI-1640, FBS, HEPES buffer solution, L-glutamine, gentamycin and 0.25% Trypsin-EDTA, purchased from BioWhittaker®, Lonza, Belgium; and Crystal violet stain (1%), composed of 0.5% (w/v) crystal violet and 50% methanol, made up to volume with ddH20 and filtered through a Whatmann No. I filter paper.
In the cytotoxicity assay, the cells were propagated in Dulbecco's modified Eagle's medium (DMEM) supplemented with 10% heat-inactivated fetal bovine serum, 1% L-glutamine, HEPES buffer and 50 μg/ml gentamycin. All cells were maintained at 37° C. in a humidified atmosphere with 5% C02 and were subcultured two times a week.
Cell toxicity was monitored by determining the effect of the test samples on cell morphology and cell viability.
For cytotoxicity assay, the cells were seeded in a 96-well plate at a cell concentration of 1×10^4 cells per well in 100 μl of growth medium. Fresh medium containing different concentrations of the test sample was added after 24 hours following seeding. Serial two-fold dilutions of the tested chemical compound were added to confluent cell monolayers dispensed into 96-well, flat-bottomed microtiter plates (Falcon, N.J., USA) using a multichannel pipette. The microtiter plates were incubated at 37° C. in a humidified incubator with 5% C02 for a period of 48 hours. Three wells were used for each concentration of the test sample. Control cells were incubated without test sample and with or without DMSO. The little percentage of DMSO present in the wells (maximal 0.1%) was found not to affect the experiment. After incubation of the cells for 24 hours at 37° C., various concentrations of sample (50, 25, 12.5, 6.25, 3.125 & 1.56 μg) were added, and the incubation was continued for 48 hours and viable cells yield was determined by a colorimetric method.
In brief, after the end of the incubation period, media were aspirated and the crystal violet solution (1%) was added to each well for at least 30 minutes. The stain was removed and the plates were rinsed using tap water until all excess stain was removed. Glacial acetic acid (30%) was then added to all wells and mixed thoroughly and then the absorbance of the plates was measured after being gently shaken on a Microplate reader (TECAN, Inc.), using a test wavelength of 490 nm. All results were corrected for background absorbance detected in wells without added stain. Treated samples were compared with the cell control in the absence of the tested compounds. All experiments were carried out in triplicate.
The cell cytotoxic effect of each tested compound was calculated according to the rapid colorimetric assay for cellular growth and survival: application to proliferation and cytotoxicity assay, published by T. Mosmann in the Journal of Immunology Methods, 1983, 65:55-63; and the antiviral activity of medicinal plants of Nilgriris, published by P. Vijayan et al. in the Indian Journal of Medical Research, 2004, 120: 24-29.

| melting point [°C] | Compound | Viability % ([1]; HepG2, sample conc. 0.78 μg) [%] | Viability % ([2]; HepG2, sample conc. 1.56 μg) [%] | Viability % ([2]; HepG2, sample conc. 3.125 μg) [%] | Viability % ([2]; HepG2, sample conc. 6.25 μg) [%] | Viability % ([2]; HepG2, sample conc. 12.5 μg) [%] | Viability % ([2]; HepG2, sample conc. 25 μg) [%] | Viability % ([2]; HepG2, sample conc. 50 μg) [%] | IC50 [2] [µg/mL] | Viability % ([1]; HepG2, sample conc. 0.39 μg) [%] |
| --- | --- | --- | --- | --- | --- | --- | --- | --- | --- | --- |
|  | COc1cccc2c1C(=O)c1c(O)c3c(c(O)c1C2=O)C[C@@](O)(C(=O)CO)C[C@@H]3O[C@H]1C[C@H](N)[C@H](O)[C@H](C)O1 [Doxorubicin, reference compound] | 57.44 | 48.25 | 30.32 | 21.03 | 16.90 | 14.29 | 10.95 | 1.2 (≈ 2.21 µM) |  |
| > 300 | O=c1c2c3c(sc2nc2sc(Nc4ccc([N+](=O)[O-])cc4)nn12)CCCCC3 [compound of the invention, 2-((4-Nitrophenyl)amino)-7,8,9,10-tetrahydrocyclohepta[4,5]thieno[2,3-d][1,3,4]thiadiazolo[3,2-a]pyrimidin-11(6H)-one] | 45.74 | 32.86 | 23.17 | 13.92 | 10.04 | 7.52 | 3.79 | 0.7 (≈ 1.69 µM) | 64.21 |

Reference: patent US9447119B2, “Chemical compound for inhibiting the growth and proliferation of human liver cancer cells HepG2 and method for synthesizing it” (priority 2015, dated 2016)
